# Values of other authors, collected in PubChem BioAssay AID1259409 (Chemical Carcinogenesis Research Information System (CCRIS), 2018).
# Tested on: rodent chemically induced tumor inhibition, incidence and multiplicity
# Assay: CCRIS tumor inhibitor studies
# Conditions: Carcinogen: DIETHYLNITROSAMINE, 55-18-5, N-METHYLNITROSOUREA, 684-93-5, 1,2-DIMETHYLHYDRAZINE, 540-73-8, N-BUTYL-N-(4-HYDROXYB, Carcinogen: DIETHYLNITROSAMINE, 55-18-5, N-METHYLNITROSOUREA, 684-93-5, 1,2-DIMETHYLHYDRAZINE, 540-73-8, N-BUTYL-N-(4-HYDROXYB, Dose [Inhibitor]: 0, Route [Inhibitor]: ORAL, Species: RAT, Strain/Sex: F344/MALE, Dose [Carcinogen]: 100 MG/KG DEN ONCE, 20 MG/KG MNU 4 TIMES, 40 MG/KG DMH 4 TIMES, 0.05% BBN IN DRINKING WATER FOR 2 WK, 0.1% DHPN IN D, Dose [Carcinogen]: 100 MG/KG DEN ONCE, 20 MG/KG MNU 4 TIMES, 40 MG/KG DMH 4 TIMES, 0.05% BBN IN DRINKING WATER FOR 2 WK, 0.1% DHPN IN D, Promoter: NONE USED
smiles,measurement,setting,value
O=c1c(O)c(-c2ccc(O)c(O)c2)oc2cc(O)cc(O)c12,"tumour outcome (control, treated, inhibition, significance)","1% IN DIET FOR 4 WK BEGINNING 1 DAY PRIOR TO CARCINOGEN TREATMENT (STUDY DURATION: 36 WK), Target Tissue: Type of Lesion: LUNG: ADENOMA","6/14 (43%), 2/13 (15%), 65%, not significant"
same,"tumour outcome (control, treated, inhibition, significance)","1% IN DIET FOR 4 WK BEGINNING 1 DAY PRIOR TO CARCINOGEN TREATMENT (STUDY DURATION: 36 WK), Target Tissue: Type of Lesion: SMALL INTESTINE: ADENOMA","6/14 (43%), 1/13 (8%), 81%, p<0.05"
same,"tumour outcome (control, treated, inhibition, significance)","1% IN DIET FOR 4 WK BEGINNING 1 DAY PRIOR TO CARCINOGEN TREATMENT (STUDY DURATION: 36 WK), Target Tissue: Type of Lesion: SMALL INTESTINE: CARCINOMA","5/14 (36%), 2/13 (15%), 58%, not significant"
same,"tumour outcome (control, treated, inhibition, significance)","1% IN DIET FOR 32 WK BEGINNING POST CARCINOGEN TREATMENT (STUDY DURATION: 36 WK), Target Tissue: Type of Lesion: KIDNEY: ADENOMA","4/14 (29%), 3/12 (25%), 14%, not significant"
same,"tumour outcome (control, treated, inhibition, significance)","1% IN DIET FOR 32 WK BEGINNING POST CARCINOGEN TREATMENT (STUDY DURATION: 36 WK), Target Tissue: Type of Lesion: KIDNEY: NEPHROBLASTOMA","7/14 (50%), 4/12 (33%), 34%, not significant"
same,"tumour outcome (control, treated, inhibition, significance)","1% IN DIET FOR 32 WK BEGINNING POST CARCINOGEN TREATMENT (STUDY DURATION: 36 WK), Target Tissue: Type of Lesion: LARGE INTESTINE: CARCINOMA","3/14 (21%), 4/12 (33%), -57%, not significant"
